Entries after “also recorded” stand apart in the source; their conditions may differ.
How the values were obtained:
PPARδ = PPARδ (Homo sapiens (Human), UniProt Q03181); assay: Transcriptional activation assay in COS7 cells, PPARδ; assay type: cell-based; conditions: PPRE luciferase reporter, PD151 and PD152 at 10 μM
Protocol: (§1) COS-7 were cultured in 6-well plates and co-transfected with either a luciferase reporter driven by 3 copies of a PPRE and expression vector for either PPARδ, PPARα or PPARγ together with a vector harboring cDNA for β-galactosidase, serving as a transfection control. To test whether FABP4 or FABP5 mediate activation of their cognate receptors PPARγ and PPARδ, respectively, cells were also co-transfected with a plasmid harboring sequence of either FABP4 or FABP5. 18 h post-transfection, cells were placed in a serum-free medium and treated with agonist/compound. 18 h. later, cells were lysed, luciferase activity was assayed (Promega, WI, USA) and corrected for transfection efficiency by the activity of β-galactosidase.
(§2) Transcriptional activation assays were carried out utilizing COS7 cells as described above.

FABP7 = FABP7 (Homo sapiens (Human), UniProt O15540); assay: Fluorescence (ANS) competition binding assay, FABP7; conditions: ANS displacement
Protocol: (§3) This example illustrates a two-step fluorescence binding assay study used to determine the binding affinity of the various inhibitor compounds disclosed herein with the various FABPs: FABP3, FABP4, FABP5 and FABP7. Further secondary screening studies were carried out for compounds with high binding affinities toward the FABPs and based on their ability to activate the nuclear receptors PPARα, PPARγ, or PPARδ.
(§4) Binding assays for FABP3, FABP4, FABP5 and FABP7 were carried out by fluorescence titrations. His-tagged FABPs were bacterially expressed in E. coli, purified using Ni Sepharose beads, and the equilibrium dissociation constants (Kd) that characterize their interactions with different inhibitor compounds were measured by fluorescence competition assays. The method entails two steps as described in e.g., Lin, Q. et al., “Ligand selectivity of the peroxisome proliferator-activated receptor alpha,” Biochemistry 38, 185-190, doi:10.1021/bi9816094 [pii](1999). In the first step, Kd for the association of the protein with the fluorescent fatty acid probe ANS was measured. Protein (2 μM) was titrated with ANS from a concentrated solution in DMSO. Ligand binding was monitored by following the increase in the fluorescence of the ligand upon binding to the protein, and Kd for the association of ANS with the each FABP was computed from titration curves as described in e.g., Norris, A. W. & Li, E., “Fluorometric titration of the CRABPs,” Methods Mol Biol 89, 123-139 (1998)). In the second step, Kds for binding of non-fluorescent ligands were measured by monitoring their ability to displace ANS in the binding pocket of the protein. Each FABP was precomplexed with ANS at 1:1 molar ratio and titrated with the different compounds whose binding was reflected by a decrease in probe fluorescence. Kds were extracted from the EC50 of the competition curve and the measured Kd for ANS.

BT-549 cells = assay: Proliferation assay (Incucyte confluency), BT-549; assay type: cell-based; conditions: Homo sapiens, 96 h, 4 days, read-out: IC50, inhibition of proliferation
Protocol: (§5) COS-7, MDA-MB-231, and HepG2, were cultured in Dulbecco's modified Eagle's medium (DMEM) supplemented with 10% fetal bovine serum (Invitrogen Life Sciences, Carlsbad, CA). BT-549, OVCAR5 and OVCAR8 cells were cultured in L-Glutamine containing RPMI medium supplemented with 10% fetal calf serum (Invitrogen Life Sciences, Carlsbad, CA). The primary Human Mammary Epithelial Cells (HMEC) were cultured in mammary epithelial cell complete medium (basal medium plus rH-Insulin (5 μg/mL); L-Glutamine (6 mM); Epinephrine (1 μM); Apo-Transferrin (5 μg/mL); rH-TGF-α (0.5 ng/mL); ExtractP (0.4%); Hydrocortisone Hemisuccinate (100 ng/mL)).
(§6) 2000 cells were plated in each well of 96-well plate. The next day cells were treated with compounds and incubated in Incucyte for 4 days. Images taken every 4 hours for the duration of the time were analyzed to calculate percentage of confluency in response to the treatments. Growth inhibition was calculated as 1—(percentage of viable cells out of untreated cells).

PPARγ = PPARγ (Homo sapiens (Human), UniProt P37231); assay: Transcriptional activation assay in COS7 cells, PPARγ; assay type: cell-based; conditions: PPRE luciferase reporter, PD151 and PD152 at 10 μM
Protocol: as §1, §2

FABP4 = FABP4 (Homo sapiens (Human), UniProt P15090); assay: Fluorescence (ANS) competition binding assay, FABP4; conditions: ANS displacement
Protocol: as §3, §4

OVCAR8 cells = assay: Proliferation assay (Incucyte confluency), OVCAR8; assay type: cell-based; conditions: Homo sapiens, OVCAR-8, 96 h, 4 days, read-out: IC50, inhibition of OVCAR8 proliferation
Protocol: as §5, §6

FABP3 = FABP3 (Homo sapiens (Human), UniProt P05413); assay: Fluorescence (ANS) competition binding assay, FABP3; conditions: ANS displacement
Protocol: as §3, §4

MB-231 cells = assay: Proliferation assay (Incucyte confluency), MB-231; assay type: cell-based; conditions: Homo sapiens, 96 h, 4 days, read-out: IC50, inhibition of proliferation
Protocol: as §5, §6

[1] = Single dose IV and PO PK study in C57BL/6 mice; assay type: in vivo; conditions: male C57BL/6 mice
Protocol: C57BL/6 male mice or Han Wistar rats were used, n=3 for each administration route and compound. Single dose of each compound was administered orally (PO, 10 mg/Kg) or by intravenous administration (IV, 1 mg/Kg). Following intravenous and oral administration, blood samples (ca 0.2 mL) were collected and compound amount was measured by HLPC. For IV group, blood samples were collected at 0.083, 0.25, 0.5, 1, 2, 4, 6, 8, and 24 hours post-dose. For PO group, blood samples were collected at 0.25, 0.5, 1, 2, 4, 6, 8, and 24 hours post-dose.

FABP5 = FABP5 (Homo sapiens (Human), UniProt Q01469); assay: Fluorescence (ANS) competition binding assay, FABP5; conditions: ANS displacement
Protocol: as §3, §4

OVCAR5 cells = assay: Proliferation assay (Incucyte confluency), OVCAR5; assay type: cell-based, human; conditions: 4 days
Protocol: as §5, §6

PPARα = PPARα (Homo sapiens (Human), UniProt Q07869); assay: Transcriptional activation assay in COS7 cells, PPARα; assay type: cell-based; conditions: PPRE luciferase reporter, PD151 and PD152 at 10 μM
Protocol: as §1, §2

[2] = mouse, plasma, intravenous 1 mg/kg

PPARγ, sequence (P37231 whole entry, species assumed): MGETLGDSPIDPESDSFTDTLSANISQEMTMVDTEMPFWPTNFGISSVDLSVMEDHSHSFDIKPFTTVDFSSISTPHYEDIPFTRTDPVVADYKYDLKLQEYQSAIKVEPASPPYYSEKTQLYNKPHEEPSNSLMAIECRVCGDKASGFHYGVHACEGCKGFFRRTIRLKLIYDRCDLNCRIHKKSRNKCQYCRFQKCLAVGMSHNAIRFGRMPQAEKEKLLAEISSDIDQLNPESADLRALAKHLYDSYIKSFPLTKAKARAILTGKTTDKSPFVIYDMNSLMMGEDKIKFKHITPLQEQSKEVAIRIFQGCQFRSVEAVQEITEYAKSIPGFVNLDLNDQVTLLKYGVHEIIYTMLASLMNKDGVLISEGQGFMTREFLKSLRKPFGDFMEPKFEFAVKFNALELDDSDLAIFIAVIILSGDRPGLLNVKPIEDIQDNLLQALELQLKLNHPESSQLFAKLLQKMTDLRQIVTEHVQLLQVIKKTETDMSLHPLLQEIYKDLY
PPARδ, sequence (Q03181 whole entry, species assumed): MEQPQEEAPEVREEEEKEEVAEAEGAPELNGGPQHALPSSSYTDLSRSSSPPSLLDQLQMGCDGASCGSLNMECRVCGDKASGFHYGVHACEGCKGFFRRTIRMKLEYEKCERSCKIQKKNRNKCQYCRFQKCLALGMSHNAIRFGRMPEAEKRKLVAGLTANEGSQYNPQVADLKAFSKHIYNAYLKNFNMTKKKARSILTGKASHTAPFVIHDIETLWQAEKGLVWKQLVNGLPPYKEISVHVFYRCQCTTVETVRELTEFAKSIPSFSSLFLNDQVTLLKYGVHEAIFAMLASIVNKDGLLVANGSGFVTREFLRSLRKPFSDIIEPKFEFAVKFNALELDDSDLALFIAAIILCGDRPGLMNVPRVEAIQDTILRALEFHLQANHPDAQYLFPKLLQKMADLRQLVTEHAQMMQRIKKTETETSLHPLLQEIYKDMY
PPARα, sequence (Q07869 whole entry, species assumed): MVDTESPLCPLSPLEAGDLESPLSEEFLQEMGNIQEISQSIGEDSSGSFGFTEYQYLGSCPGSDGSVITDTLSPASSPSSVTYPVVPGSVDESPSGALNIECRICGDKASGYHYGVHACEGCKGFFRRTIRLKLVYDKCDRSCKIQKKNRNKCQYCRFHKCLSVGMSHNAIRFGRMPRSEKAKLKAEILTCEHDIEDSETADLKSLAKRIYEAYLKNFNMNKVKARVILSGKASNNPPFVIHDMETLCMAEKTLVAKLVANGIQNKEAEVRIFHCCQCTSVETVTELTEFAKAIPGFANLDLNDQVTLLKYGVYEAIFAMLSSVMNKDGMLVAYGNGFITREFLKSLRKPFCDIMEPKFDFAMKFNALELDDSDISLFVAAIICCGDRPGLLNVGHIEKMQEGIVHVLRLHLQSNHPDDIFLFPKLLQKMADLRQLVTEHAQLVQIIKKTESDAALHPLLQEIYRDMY
FABP5, sequence (Q01469 whole entry, species assumed): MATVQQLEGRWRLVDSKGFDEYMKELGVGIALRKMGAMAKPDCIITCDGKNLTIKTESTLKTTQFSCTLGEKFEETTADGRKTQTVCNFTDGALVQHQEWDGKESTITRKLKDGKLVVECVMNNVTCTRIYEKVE
FABP7, sequence (O15540 whole entry, species assumed): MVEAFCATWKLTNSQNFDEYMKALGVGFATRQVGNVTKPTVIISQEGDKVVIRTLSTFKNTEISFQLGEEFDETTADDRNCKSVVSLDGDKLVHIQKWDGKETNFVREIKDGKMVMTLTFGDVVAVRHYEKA
FABP3, sequence (P05413 whole entry, species assumed): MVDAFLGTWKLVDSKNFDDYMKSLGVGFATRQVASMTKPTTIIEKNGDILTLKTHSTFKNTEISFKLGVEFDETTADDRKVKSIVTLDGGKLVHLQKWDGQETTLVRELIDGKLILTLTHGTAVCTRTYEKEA
FABP4, sequence (P15090 whole entry, species assumed): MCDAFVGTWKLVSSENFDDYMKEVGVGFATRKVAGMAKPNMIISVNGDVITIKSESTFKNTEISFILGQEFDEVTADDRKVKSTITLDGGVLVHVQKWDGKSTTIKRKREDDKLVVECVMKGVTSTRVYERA

Kd (FABP7): > 1000 nM
IC50 (BT-549 cells): 1010 nM
Kd (FABP4): 18 nM
IC50 (OVCAR8 cells): 700 nM
Kd (FABP3): 250 nM
Thalf ([1]; oral 10 mg/kg): 4 h
clearance [1, 2]: 5.3 mL/min/kg
half-life [1, 2]: 3 to 4 h
bioavailability ([1]; mouse, plasma, single oral dose 10 mg/kg): 95%
Kd (FABP5): 16 nM
SMILES: CC(C)Oc1nc(NC(=O)CSCC(=O)O)c(Cl)cc1C(F)(F)F [PD151, 2-((2-((3-chloro-6-isopropoxy-5-(trifluoromethyl)pyridin-2-yl)amino)-2-oxoethyl)thio)acetic acid]
Activation of transcription by PPARδ (PPARδ): None of these tested compounds activated; also recorded: none of the tested compounds PD151 and PD152 activated transcription
Activation of transcription by PPARγ (PPARγ): None of these tested compounds activated; also recorded: none of the tested compounds PD151 and PD152 activated transcription
IC50 (MB-231 cells): 727 nM
Inhibition of OVCAR5 proliferation (OVCAR5 cells): inhibited proliferation of the two cell lines in a dose-dependent manner
Activation of transcription by PPARα (PPARα): None of these tested compounds activated; also recorded: none of the tested compounds PD151 and PD152 activated transcription

— patent publication US20250325529A1, “INHIBITORS OF FATTY ACID BINDING PROTEINS (FABPs), METHODS OF USE AND METHODS OF MAKING” (Celloram, inc., priority 2024, published 2025)
